The source of these data is patent US20240294504A1, “COMPOUNDS, COMPOSITIONS, AND METHODS FOR INDUCING ANTIMICROBIAL INTRACELLULAR ACTIVITY AND FOR PREVENTING AND TREATING MICROBIAL INFECTIONS” (The Broad Institute, Inc., priority 2021, published 2024).

Data set [1] has as its system intracellular K. pneumoniae. Description: Intracellular survival of K. pneumoniae (RB120) in bladder epithelial cells (gentamicin protection assay, CFUs from plated cell lysates). In kind it is cell-based, Klebsiella pneumoniae. The conditions noted are these: for EC50: 24 hours of treatment, bladder epithelial cells, read-out: EC50 of dose-dependent killing / antimicrobial activity against intracellular K. pneumoniae.

Data set [2] concerns post-lanosterol cholesterol biosynthesis pathway. Description: LC-MS based lipidomics of sterol intermediates in host cells. In kind it is cell-based, human. The conditions noted are these: 10 μM. The protocol: FIGS. 17A-17C. LC-MS based lipidomics evaluation of effect of other available post-lanosterol cholesterol biosynthesis inhibitors on infection. (FIG. 17A) Post-lanosterol pathway. (FIG. 17B) Effect of 10 μM AY9944 or 10 μM (S)-crizotinib after 2 hours of treatment (FIG. 17C) or after 24 hours of treatment.

A further data set has as its system SARS-COV-2. Description: SARS-COV-2 infection of veroE6 kidney epithelial cells (immunofluorescence microscopy). In kind it is cell-based.
In the next data set the test system is interferon beta response. Briefly: Interferon beta response in infected bladder epithelial cells. In kind it is cell-based, human. More on the design: dose or concentration left out as unconfirmed. Particulars: 24 hours (24 to 48 hours post infection). How it is done: FIG. 7. […] Infected cells were treated for 24 hours with […] (S)-crizotinib, AY9944 or DMSO control from 24 to 48 hours post infection.

Data set [3] relates to intracellular carbapenem-tolerant K. pneumoniae. The conditions noted are these: primary screen 5 μM, retest 2.5 to 20 μM.
Procedure: Bladder epithelial cells were infected with lux-expressing K. pneumoniae and incubated with the carbapenem antibiotic meropenem (see FIG. 1A), after killing extracellular bacteria with a high dose of gentamicin shortly after the infection. Intracellular survival was assessed by determining the luminescence intensity of intracellular bacteria that had been liberated by host cell lysis and outgrown in LB medium for 7 hours. […] Mean and SD of Z-factors of n=32 plates from 4 batches (independent outgrowth events) shown. […] Partial hits and hits involving known antibiotics were excluded. Hits from the primary screen were retested in a secondary screen at different concentration.
Data set [4] concerns extracellular K. pneumoniae. In kind it is cell-based, Klebsiella pneumoniae.
Data set [5] relates to intracellular Salmonella Typhimurium. Briefly: Intracellular survival of Salmonella Typhimurium in host cells. In kind it is cell-based.
Another data set deals with Gram-positive bacteria. The conditions noted are these: cited from earlier work.
A further data set has as its system tumor growth. The conditions noted are these: mouse, in vivo; cited from earlier work.
Data set [6] has as its system uropathogenic Escherichia coli (UPEC, UTI89). Briefly: Intracellular survival of UPEC in bladder epithelial cells. In kind it is cell-based. Particulars: 10 μM, 4 hours.
Data set [7] relates to K. pneumoniae ST258 expressing mNeon (UCI_38DwbaP_mNeon). Description: Confocal microscopy of fluorescent Klebsiella-containing vacuoles (LAMP1) in bladder epithelial cells. Format: cell-based, Klebsiella pneumoniae. The conditions noted are these: 10 μM, 24 hours (24 to 48 hours post infection).
The test system of data set [8] is intracellular K. pneumoniae. Description: Intracellular survival of K. pneumoniae in human lung epithelial cell line A549. In kind it is cell-based, Klebsiella pneumoniae. The conditions noted are these: 10 μM, over 2 hours.
The next data set concerns cancer cells. The conditions noted are these: cited from earlier work.
In data set [9] the test system is Pseudomonas aeruginosa (PAO1). Description: Intracellular survival of P. aeruginosa in bladder epithelial cells. Format: cell-based. Particulars: 10 μM, 24 hours.
[10] abbreviates: Klebsiella pneumoniae, Epithelial cell.
Setting [11] is: 24 h treatment of infected bladder cells.
Where [12] appears, read: 10 μM, after 24 hours of treatment.

Where “and” joins values, the source holds several entries; their conditions need not be identical. Identical values can stand only once. Entries after “also recorded” stand apart in the source; their conditions may differ. Like-named read-outs stand apart in the source and are kept apart here.

Turning to `Clc1ccccc1CNCC1CCC(CNCc2ccccc2Cl)CC1` (centres unmarked) [AY 9944], the “killed % of the intracellular population in 60 minutes” value in data set [1] (10 uM, 60 minutes) is recorded as “approx. 80%”. For the same compound, in [1] (setting [10]), the EC50 is 940 nM. In addition, in [2] (2 hour treatment), the “FF-MAS, fold increased” value was 4.2 fold; the “dehydrodesmosterol, fold increased” value is recorded as 1.2 fold; the “lanosterol, fold increased” value is given as 1.2 fold. In data set [2] (24 hour treatment), the “FF-MAS, fold increased” value was 11.9 fold; the “dehydrodesmosterol, fold increased” value was 2.9 fold; the “lanosterol, fold increased” value was 3 fold. Also, in the data set on bladder epithelial cells (setting [11]), the “host cell cytotoxicity against bladder epithelial cells” value (shortened to “host cell cytotoxicity”) was “no host cell toxicity”. Moreover, the EC50 in the data set on SARS-COV-2 (Severe acute respiratory syndrome coronavirus 2, Vero C1008, read-out: EC50 of antiviral activity in SARS-COV-2 infections) worked out at 1000 nM. Besides, in the data set with interferon beta response, the “interferon beta response in bladder epithelial cells infected with K. pneumoniae” value is reported as “do not induce an interferon beta response”. Further, the “outcome in high-throughput screen” value in data set [3] is listed as “hit”. Also, the “antibacterial activity against K. pneumoniae grown in axenic medium” value in [4] was “no host cell toxicity or antimicrobial activity in axenic medium”.
For `CC(C)Cn1cnc2c(N)nc3ccccc3c21` [imiquimod], the “anti-infective / antimicrobial activity of TLR7 agonist” value in data set [1] (after 24 hours of treatment) is “moderate anti-infective activity; also recorded: Modest antimicrobial activity”.
With `Nc1nc(NC2CC2)cc(-c2cccc(Cl)c2Cl)n1` [TH588], in [1] (10 μM), the “intracellular antibacterial activity after 4 hours of treatment” value is listed as “did not display intracellular antibacterial activity; also recorded: did not induce intracellular antibacterial activity” and the “intracellular antibacterial activity after 24 hours of treatment” value is listed as “modest antibacterial activity”. In addition, the “host cell cytotoxicity” value in the data set with bladder epithelial cells (setting [11]) is given as “dose dependent toxicity”.
In the case of `C[C@@H](Oc1cc(-c2cnn(C3CCNCC3)c2)cnc1N)c1c(Cl)ccc(F)c1Cl` [(R)-crizotinib], the “killing % of the intracellular K. pneumoniae population” value in data set [1] (setting [12]) came to 99%. Besides, the EC50 in [1] (setting [10]) was found to be 1100 nM. The “host cell cytotoxicity” value in the data set with bladder epithelial cells is “displayed host cell cytotoxicity in a dose-dependent manner”. In data set [3], the “outcome in high-throughput screen” value is “top hits”.
On to `C[C@@H](O)[C@H]1C(=O)N2C(C(=O)O)=C(S[C@@H]3CN[C@H](C(=O)N(C)C)C3)[C@H](C)[C@H]12` [meropenem], for which the “impact on the viability of intracellular K. pneumoniae” value in data set [1] (meropenem 10 μg/ml (150 fold of MIC), 20 hours) was “no impact; also recorded: ineffective”. The “killed % of intracellular Salmonella Typhimurium population” value in [5] (meropenem 10 μg/ml, after 20 hours of treatment) came to 87%.
`C[C@@H](Oc1cc(-c2cnn(C3CCNCC3)c2)cnc1N)c1c(Cl)ccc(F)c1Cl` [crizotinib]: the “concentration for growth inhibition of Gram-positive bacteria” value in the data set on Gram-positive bacteria is above 20 µM.
As for `C[C@H](Oc1cc(-c2cnn(C3CCNCC3)c2)cnc1N)c1c(Cl)ccc(F)c1Cl` [(S)-crizotinib], the “tumor growth in mice” value in the data set with tumor growth was “suppress tumor growth in mice”. The “antibacterial activity in bladder epithelial cells infected with UPEC” value in data set [6] is “antibacterial activity”. Also, the “killing % of the intracellular population within 15 minutes” value in [1] (10 μM, 15 minutes) is 82% and 80%. The “% of the intracellular population killed after 2 hours of treatment” value in data set [1] (10 μM, 2 hours) was determined as 99%. For the same compound, in data set [1] (10 μM, 2 hours, presence vs absence of gentamicin), the “effect of removal of gentamicin from the culture medium on antibacterial activity” value is given as “had no impact on the potent antibacterial activity”. The “killing % of the intracellular K. pneumoniae population” value in data set [1] (setting [12]) is 99%. Besides, in data set [1] (4 mg/ml ciprofloxacin for 14 hours, then (S)-crizotinib for 6 hours in the presence of ciprofloxacin), the “activity against intracellular ciprofloxacin-tolerant K. pneumoniae persisters” value is “dose-dependent antibacterial activity”. The “increase of extracellular bacteria (exocytosis of Klebsiella-containing compartments)” value in [1] (2 hours, absence of gentamicin, supernatants) is on record as “did not result in a significant increase of extracellular bacteria”. The EC50 in data set [1] was found to be 1700 nM. Moreover, the “antibacterial activity in cells infected with Salmonella Typhimurium” value in data set [5] (HeLa epithelial cells, 10 μM, 20 hours (4 to 24 hours post infection)) is “antibacterial activity”. Also, the “host cell cytotoxicity” value with bladder epithelial cells was “did not display cytotoxicity”. The “antiviral activity in epithelial cells infected with SARS-COV-2” value with SARS-COV-2 (veroE6, MOI 0.1, 24 h treatment) was “induced antiviral activity in epithelial cells infected with SARS-COV-2 in a dose dependent manner”. Also, the “interferon beta response in bladder epithelial cells infected with K. pneumoniae” value in the data set on interferon beta response is “do not induce an interferon beta response”. Further, in data set [3], the “outcome in high-throughput screen” value is recorded as “top hits”. In addition, in data set [7], the “reduction in the median fluorescence intensity of mNeon-expressing Klebsiella in LAMP1 containing compartments” value is on record as 33% and the “reduction of detected Klebsiella containing compartments” value is 63%. The “antiinfective activity against intracellular K. pneumoniae in A549 lung epithelial cells” value in data set [8] is “rapid antiinfective activity”. Moreover, the “inhibits colony formation of cancer cells” value in the data set on cancer cells is “low micromolar concentrations”. Also, in [4], the “antibacterial activity against K. pneumoniae grown in axenic medium” value was “did not display antibacterial activity”. Moreover, in data set [9], the “antibacterial activity in bladder epithelial cells infected with Pseudomonas aeruginosa” value is listed as “antibacterial activity”.
For `CNc1cc(-c2cccc(Cl)c2Cl)nc(N)n1` [TH287], in data set [1] (10 μM), the “intracellular antibacterial activity after 4 hours of treatment” value was “did not display intracellular antibacterial activity” and the “intracellular antibacterial activity after 24 hours of treatment” value was “modest antibacterial activity”. Further, the “host cell cytotoxicity” value in the data set on bladder epithelial cells (setting [11]) is “dose dependent toxicity”.
